Results on 35 compounds are retold here after ChEMBL document CHEMBL3868607, “Development of a novel series of non-natural triaryl agonists and antagonists of the Pseudomonas aeruginosa LasR quorum sensing receptor” (Bioorg Med Chem, 2017).

pEC50, pIC50: −log10 of the molar value. Active and inactive are the calls of the source. The rule behind the calls is not given here.

Experiment [1] relates to Pseudomonas aeruginosa. As to the kind of experiment: Agonist activity at Pseudomonas aeruginosa GFP-fused LasR expressed in Escherichia coli BL21(DE3) at 50 uM after 4 to 6 hrs by fluorescence assay relative to 3-oxo-C12 HSL.
Experiment [2] is described as follows: Agonist activity at Pseudomonas aeruginosa GFP-fused LasR expressed in Escherichia coli BL21(DE3) after 4 to 6 hrs by fluorescence assay.
Experiment [3] can be described thus: Antagonist activity at Pseudomonas aeruginosa GFP-fused LasR expressed in Escherichia coli BL21(DE3) after 4 to 6 hrs by fluorescence assay.
Experiment [4] concerns Pseudomonas aeruginosa. Briefly: Antagonist activity at Pseudomonas aeruginosa GFP-fused LasR expressed in Escherichia coli BL21(DE3) at 50 uM after 4 to 6 hrs by fluorescence assay relative to (S)-2-(4-bromophenyl)-N-(2-oxotetrahydrofuran-3-yl) acetamide.
The test system of experiment [5] is Pseudomonas aeruginosa. Briefly: Irreversible inhibition of Pseudomonas aeruginosa GFP-fused LasR expressed in Escherichia coli BL21(DE3) at 50 uM after 4 to 6 hrs by fluorescence assay.
Experiment [6] can be described thus: Antagonist activity at Pseudomonas aeruginosa LasR expressed in Escherichia coli DH5alpha after 4 to 6 hrs by beta-galactosidase reporter gene assay. (In general: A reporter such as luciferase makes a cellular process visible.)

For `O=C(Cc1cc(Br)cc(Br)c1OC(=O)c1ccccc1Cl)Nc1ccccc1[N+](=O)[O-]`, the Emax with Pseudomonas aeruginosa [1] came out at 105%. The negative-log EC50 (pEC50) in experiment [2] was 6.43.

The compound `O=C(NCc1cc(Br)cc(Br)c1OC(=O)c1ccccc1Cl)c1ccccn1` gave an Emax in the experiment with Pseudomonas aeruginosa [1] of 0%. In experiment [3], this compound gave a pIC50 of 4.10. This compound also showed an Imax in the experiment with Pseudomonas aeruginosa [4] of 105%. The same compound had a pEC50 in experiment [2] of under 4.30.

Regarding `O=C(Oc1c(Br)cc(Br)cc1CNC(=O)c1cccc(F)c1F)c1ccccc1Cl`, the Emax in the experiment on Pseudomonas aeruginosa [1] turned out to be 0%. In experiment [3], the pIC50 is 4.19. The compound further registered an Imax in the experiment on Pseudomonas aeruginosa [4] of 80%. For the same compound, in experiment [2], the pEC50 is under 4.30.

Compound `O=C(Cc1cc(Br)cc(Br)c1OC(=O)c1ccccc1Cl)Nc1ccncc1[N+](=O)[O-]` yielded an Emax in the experiment on Pseudomonas aeruginosa [1] of 112%. This compound also showed a pEC50 in experiment [2] of 6.35.

In the case of `Cc1ccccc1C(=O)Oc1c(Br)cc(Br)cc1CC(=O)Nc1ccccc1[N+](=O)[O-]`, the Emax with Pseudomonas aeruginosa [1] worked out at 85%. The pEC50 in experiment [2] is 6.12.

As for `O=C(Cc1cc(Br)cc(Br)c1OC(=O)CCN1C(=O)C=CC1=O)N[C@H]1CCOC1=O`, the negative-log IC50 (pIC50) in experiment [3] was 4.62. Besides, in the experiment with Pseudomonas aeruginosa [4], the Imax was determined as 115%. Moreover, the inhibition entry with Pseudomonas aeruginosa [5] was “Active”.

`O=C(Cc1cc(Br)cc(Br)c1OC(=O)c1ccccc1Cl)Nc1ccc([N+](=O)[O-])cc1` yielded an Emax in the experiment on Pseudomonas aeruginosa [1] of 0%. This compound had a pEC50 in experiment [2] of over 4.30.

`O=C(Cc1cc(Br)cc(Br)c1OC(=O)c1ccccc1I)Nc1ccccc1[N+](=O)[O-]` returned an Emax with Pseudomonas aeruginosa [1] of 50%. The compound further showed a pEC50 in experiment [2] of 5.80.

In the experiment on Pseudomonas aeruginosa [1], `O=C(Cc1cc(Br)cc(Br)c1OC(=O)c1ccccc1Cl)Nc1ccccn1` came in with an Emax of 0%. Further, the pIC50 in experiment [3] is 4.38. For the same compound, the Imax with Pseudomonas aeruginosa [4] was determined as 122%. The pEC50 in experiment [2] was over 4.30.

`O=C(Cc1cc(Br)cc(Br)c1OC(=O)c1ccc(Br)cc1)Nc1ccccc1[N+](=O)[O-]`: the Emax in the experiment on Pseudomonas aeruginosa [1] is 35%. In experiment [2], this compound had a pEC50 of over 4.30.

Take `Cc1ccc(C(=O)Oc2c(Br)cc(Br)cc2CC(=O)Nc2ccccc2[N+](=O)[O-])cc1`: the Emax with Pseudomonas aeruginosa [1] is 33%. Moreover, the pEC50 in experiment [2] was over 4.30.

As for `O=C(NCc1cc(Br)cc(Br)c1OC(=O)c1ccccc1Cl)c1ccncn1`, the Emax with Pseudomonas aeruginosa [1] amounted to 90%. Further, the pIC50 in experiment [3] was under 4.00. The compound further yielded an Imax with Pseudomonas aeruginosa [4] of 0%. The compound also showed a pEC50 in experiment [2] of 5.79.

In the experiment with Pseudomonas aeruginosa [1], `O=C(Cc1cc(Br)cc(Br)c1OC(=O)c1ccc(Cl)cc1)Nc1ccccc1[N+](=O)[O-]` came in with an Emax of 0%. For the same compound, in experiment [2], the pEC50 is over 4.30.

For `O=C(Cc1cc(Br)cc(Br)c1OC(=O)c1cccc(Cl)c1)Nc1ccccc1[N+](=O)[O-]`, in the experiment with Pseudomonas aeruginosa [1], the Emax turned out to be 0%. The pEC50 in experiment [2] was over 4.30.

For `O=C(Cc1cc(Br)cc(Br)c1OC(=O)c1ccccc1[N+](=O)[O-])Nc1ccccc1[N+](=O)[O-]`, in the experiment on Pseudomonas aeruginosa [1], the Emax was found to be 37%. The same compound had a pEC50 in experiment [2] of 6.31.

The compound `O=C(Cc1cc(Br)cc(Br)c1OC(=O)c1ccccc1Cl)Nc1cc(F)c(F)cc1[N+](=O)[O-]` had an Emax in the experiment on Pseudomonas aeruginosa [1] of 89%. This compound also showed a pEC50 in experiment [2] of 6.47.

In turn, `O=C(Cc1ccc(Br)cc1)N[C@H]1CCOC1=O` showed a negative-log IC50 (pIC50) in experiment [6] of 4.58.

With `O=C(Cc1cc(Br)cc(Br)c1OCc1c(Cl)cccc1Cl)Nc1ccccc1[N+](=O)[O-]`, the Emax in the experiment on Pseudomonas aeruginosa [1] was 56%. The compound further gave a pEC50 in experiment [2] of 6.79.

In the experiment with Pseudomonas aeruginosa [1], `O=C(Cc1cc(Br)cc(Br)c1OC(=O)c1c(Cl)cccc1Cl)Nc1ccccc1[N+](=O)[O-]` registered an Emax of 95%. The compound further gave a pEC50 in experiment [2] of 6.50.

Compound `O=C(Cc1cc(Br)cc(Br)c1OC(=O)c1ccccc1Cl)Nc1cccc([N+](=O)[O-])c1` displayed an Emax in the experiment on Pseudomonas aeruginosa [1] of 0%. Also, the pEC50 in experiment [2] is over 4.30.

Regarding `O=C(Cc1cc(Br)cc(Br)c1OC(=O)c1ccccc1Br)Nc1ccccc1[N+](=O)[O-]`, the Emax in the experiment on Pseudomonas aeruginosa [1] stood at 82%. This compound also had a pEC50 in experiment [2] of 6.57.

Regarding `O=C(Cc1cc(Br)cc(Br)c1OC(=O)c1ccccc1Cl)Nc1cccc(F)c1F`, the Emax in the experiment with Pseudomonas aeruginosa [1] was found to be 116%. In addition, the pIC50 in experiment [3] is under 4.00. In addition, the Imax in the experiment with Pseudomonas aeruginosa [4] amounted to 0%. Besides, the pEC50 in experiment [2] is 7.34.

As for `O=C(CCCN1C(=O)C=CC1=O)Oc1c(Br)cc(Br)cc1CNC(=O)c1ccccn1`, the pIC50 in experiment [3] is 4.11. The same compound yielded an Imax in the experiment on Pseudomonas aeruginosa [4] of 116%. Also, the inhibition entry with Pseudomonas aeruginosa [5] was “Active”.

`O=C(Cc1cc(Br)cc(Br)c1OC(=O)c1ccc(F)cc1Br)Nc1ccccc1[N+](=O)[O-]` came in with an Emax in the experiment with Pseudomonas aeruginosa [1] of 64%. For the same compound, in experiment [2], the pEC50 is 6.36.

Regarding `COc1ccccc1C(=O)Oc1c(Br)cc(Br)cc1CC(=O)Nc1ccccc1[N+](=O)[O-]`, in the experiment with Pseudomonas aeruginosa [1], the Emax worked out at 45%. In experiment [2], this compound showed a pEC50 of 6.61.

In the experiment with Pseudomonas aeruginosa [1], `O=C(Cc1cc(Br)cc(Br)c1OC(=O)c1ccccc1Cl)Nc1ccncn1` gave an Emax of 92%. Besides, in experiment [3], the pIC50 was under 4.00. The compound also registered an Imax in the experiment on Pseudomonas aeruginosa [4] of 0%. This compound had a pEC50 in experiment [2] of 6.22.

`O=C(Cc1cc(Br)cc(Br)c1OC(=O)c1ccccc1)Nc1ccccc1[N+](=O)[O-]` came in with an Emax with Pseudomonas aeruginosa [1] of 0%. In experiment [2], this compound gave a pEC50 of over 4.30.

As for `O=C(Cc1cc(Br)cc(Br)c1OC(=O)c1ccc(F)cc1)Nc1ccccc1[N+](=O)[O-]`, the Emax in the experiment on Pseudomonas aeruginosa [1] was determined as 39%. Moreover, the pEC50 in experiment [2] was over 4.30.

`O=C(Cc1cc(Br)cc(Br)c1OC(=O)CCCN1C(=O)C=CC1=O)N[C@H]1CCOC1=O` showed a pIC50 in experiment [3] of under 4.00. The compound further showed an Imax with Pseudomonas aeruginosa [4] of 109%. For the same compound, the inhibition result in the experiment on Pseudomonas aeruginosa [5] was “Active”.

Take `Cc1cccc(C(=O)Oc2c(Br)cc(Br)cc2CC(=O)Nc2ccccc2[N+](=O)[O-])c1`: the Emax in the experiment with Pseudomonas aeruginosa [1] was 24%. The compound also showed a pEC50 in experiment [2] of over 4.30.

Regarding `O=C(Cc1cc(Br)cc(Br)c1OC(=O)c1ccccc1Cl)N[C@H]1CCOC1=O`, the Emax in the experiment on Pseudomonas aeruginosa [1] was 105%. In addition, the pEC50 in experiment [2] was 9.05.

`CCCCCCCCCC(=O)CC(=O)N[C@H]1CCOC1=O`: the pEC50 in experiment [2] was 4.14 to 4.19.

In turn, `O=C(Cc1cc(Br)cc(Br)c1OC(=O)c1cccc(Br)c1)Nc1ccccc1[N+](=O)[O-]` returned an Emax in the experiment on Pseudomonas aeruginosa [1] of 44%. The compound also gave a pEC50 in experiment [2] of over 4.30.

The compound `O=C(NCc1cc(Br)cc(Br)c1OC(=O)c1ccccc1Cl)c1cccnc1` yielded an Emax in the experiment with Pseudomonas aeruginosa [1] of 31%. This compound showed a pIC50 in experiment [3] of under 4.00. For the same compound, in the experiment on Pseudomonas aeruginosa [4], the Imax stood at 0%. In experiment [2], this compound had a pEC50 of 9.31.

Compound `O=C(Cc1cc(Br)cc(Br)c1OC(=O)c1ccccc1F)Nc1ccccc1[N+](=O)[O-]` came in with an Emax with Pseudomonas aeruginosa [1] of 76%. The compound further had a pEC50 in experiment [2] of 5.89.

The term Emax denotes the size of the effect at its maximum, as opposed to the concentration needed. For orientation: pEC50 means −log10 of the EC50, conventionally taken in molar units. A lower pEC50 goes with a large EC50. For orientation: pIC50 means −log10 of the IC50, conventionally taken in molar units. Higher therefore signals a small IC50.
